# According to patent US12427212B2, “Nectin-4 binding miniproteins, conjugates and uses thereof” (Aktis Oncology, Inc., priority 2023, dated 2025):
# Bridges are numbered along the chain shown (N, C = ends). Primed or numbered codes have the meaning given here. [ ]: non-standard residue; d: D form. The star is where a group is joined. DOTA = O=C(O)CN1CCN(CC(=O)O)CCN(CC(=O)*)CCN(CC(=O)O)CC1; Biotin = O=C1N[C@H]2[C@H](CS[C@H]2CCCCC(=O)*)N1; Lys(Me3) = C[N+](C)(C)CCCC[C@H](N)C(=O)O; Arg(Me2s) = CN=C(NC)NCCC[C@H](N)C(=O)O; Cit = NC(=O)NCCC[C@H](N)C(=O)O; PEG4 = NCCOCCOCCOCCOCCC(=O)O; PEG4′ = not defined here
# Tests used:
# [1] = test system: un-transfected HEK293 cells; assay: Background binding to un-transfected HEK293 cells (cell microarray suitability); type: cell-based, human; details: biotin-labeled molecules
# Description: To evaluate potential off-target binding, six biotin-labeled molecules were tested in a cell microarray platform having 6,416 different human proteins spanning diverse functions and subcellular locations.
# Nectin-4 [2] = target: T1, Nectin-4 (Homo sapiens, UniProt Q96NY8); assay: Surface plasmon resonance (Biacore), 1:1 binding model, human Nectin-4; details: SPR, 25° C.
# T1 sequence (Q96NY8 32-510): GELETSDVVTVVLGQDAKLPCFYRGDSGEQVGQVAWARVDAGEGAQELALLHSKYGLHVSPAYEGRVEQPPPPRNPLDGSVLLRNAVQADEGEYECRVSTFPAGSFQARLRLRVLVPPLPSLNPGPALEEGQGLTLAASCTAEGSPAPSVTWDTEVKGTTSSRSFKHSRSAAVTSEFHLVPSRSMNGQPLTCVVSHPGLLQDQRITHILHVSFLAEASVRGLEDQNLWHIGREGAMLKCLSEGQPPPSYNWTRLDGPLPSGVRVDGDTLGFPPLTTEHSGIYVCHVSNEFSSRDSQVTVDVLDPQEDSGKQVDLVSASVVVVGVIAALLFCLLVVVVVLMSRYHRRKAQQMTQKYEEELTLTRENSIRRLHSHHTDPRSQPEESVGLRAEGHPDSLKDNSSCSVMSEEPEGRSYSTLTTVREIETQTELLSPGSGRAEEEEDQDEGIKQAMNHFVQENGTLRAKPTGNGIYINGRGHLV
# Description: (§1) Peptide binding affinity to the target protein was measured by SPR using an SPR machine, such as a Biacore T200 instrument. The target protein was covalently coupled to a Biacore chip surface using free amine-coupling chemistry (NHS/EDC) and all uncoupled sites were blocked with ethanolamine. Free peptides were flowed over the target protein surface in increasing concentrations to measure association (Ka, 1/Ms^−1)) and dissociation (Kd, s^−1) to calculate the dissociation equilibrium constant (KD) using an appropriate binding model (see, e.g., Nikolas Stroth, J Biol Methods. 2016; 3 (1)).
# (§2) In FIGS. 1A, 1B, 2A, and 2B, lines on graphs are labeled from top to bottom, beginning with letter “a.” and the corresponding concentration is noted to the right of the figure.
# (§3) (i.e., a conjugate comprising a Nectin-4 peptide of SEQ ID NO: 5 and arranged having an N-terminus comprising ^138La-DOTA-PEG4 and a C-terminus comprising OH). […] In both FIGS. 3A and 3B, lines on graphs were labeled from top to bottom, beginning with letter a, and the corresponding concentration was noted to the right of the figure.
# mouse Nectin-4 = target: T2, mouse Nectin-4 (Mus musculus, UniProt Q8R007); assay: Surface plasmon resonance (Biacore), 1:1 binding model, mouse Nectin-4; details: SPR, 25° C.
# T2 sequence (Q8R007 31-508): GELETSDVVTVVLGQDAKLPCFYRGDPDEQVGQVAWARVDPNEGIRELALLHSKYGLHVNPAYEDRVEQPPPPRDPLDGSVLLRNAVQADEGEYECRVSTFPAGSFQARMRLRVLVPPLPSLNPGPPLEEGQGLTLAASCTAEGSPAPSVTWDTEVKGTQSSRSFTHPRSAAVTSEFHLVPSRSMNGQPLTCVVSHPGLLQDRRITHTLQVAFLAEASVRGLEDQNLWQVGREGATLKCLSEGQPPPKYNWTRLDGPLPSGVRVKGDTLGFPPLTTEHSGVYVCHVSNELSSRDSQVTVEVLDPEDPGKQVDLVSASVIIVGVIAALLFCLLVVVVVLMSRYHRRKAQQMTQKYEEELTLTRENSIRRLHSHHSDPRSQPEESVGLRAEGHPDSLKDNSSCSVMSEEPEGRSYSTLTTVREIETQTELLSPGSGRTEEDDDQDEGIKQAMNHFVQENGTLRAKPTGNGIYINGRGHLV
# Description: as §1, §2, §3
# [3] = test system: HT-1376 urothelial cancer cells; assay: In vitro cell cytotoxicity assay of 225Ac-radioconjugates (CellTiter-Glo); type: cell-based, human; details: compound radiolabeled with 225Ac, 24 h treatment, 4-5 day regrowth, HT-1376 cells
# Description: Cytotoxicity to ^225Ac-radioconjugates was assessed in HT-1376 urothelial cancer cells. Cells were seeded in 96-well plates at densities of 250 to 1000 cells per well two days prior to treatment. On the day of treatment ^225Ac-radioconjugates were diluted in culture medium to concentrations ranging from 0,0001 to 100 μCi/mL and treatment solutions were incubated with cells for 24 h. At the end of the treatment period, the treatment solution was removed, and fresh culture medium was replenished for the regrowth period of the assay that lasted 4-5 day's. At the end of the regrowth period the culture medium was removed and viability was assessed by CellTiter-Glo (Promega, Waltham MA) luminescent assay and the plates were read on a Perkin Elmer Enspire multimode plate reader. Data were normalized to treatment controls and plotted as non-linear sigmoidal dose response curves to determine the effective concentration for 50% reduction in cell viability.
# [4] = test system: Opossum kidney proximal tubule cells; assay: Proximal tubule epithelial cell uptake assay; type: cell-based; details: Table 10A; mean percent uptake in opossum kidney cells, 1 h at 37° C., relative to control miniprotein C306
# Description: FIG. 8 is a bar graph of the percent uptake of exemplary miniproteins tested at 20 µM in a proximal tubule epithelial cell assay vs 20 μM control peptide set at 100%. […]
# Opossum kidney proximal tubule cells were plated in the upper chamber of 24-well transwell plates containing 600 μL of growth media in the lower chamber and were incubated overnight at 37° C., in 5% CO2. The following day, the media was changed, and cells were incubated an additional 24 h with orbital shaking at 146 RPM. Next, cells were washed and treated in duplicates with biotinylated exemplary miniproteins pre-complexed with streptavidin-AF647 for 1 h at 37° C., and 5% C02 with continuous orbital shaking. Following incubation, cells were washed three times with 1×PBS and lysed with RIPA buffer containing protease and phosphatase inhibitor cocktail and a universal nuclease for 30 minutes. Uptake was measured on 100 μL of lysates using a fluorimeter. Mean % uptake values of control miniprotein C306 in the presence of exemplary miniproteins are provided in TABLE 10A and summarized in FIG. 8.
# Uptake of engineered Nectin-4 miniproteins with further modified lysine residues (C298-C304, as described in Example 4B) was evaluated. Percent uptake of these exemplary Nectin-4-targeting miniproteins and C251 were determined against a control miniprotein, C306, using opossum kidney proximal tubule cells as described in Example 18A. Percent uptake of C298, which has an unmodified lysine (K) at amino acid position 26 (along the length of the miniprotein sequence. SEQ ID NO: 162), was 37% in the presence of […]. All other miniproteins having a modified lysine (modified with one or more small alkyl groups of monomethyl, dimethyl, trimethyl, or isopropyl group) had (i) kidney uptake similar to that of C251 and (ii) reduced uptake as compared to C298, which has an unmodified lysine at position 26.
# Nectin-4 [5] = target: T1, Nectin-4; assay: DELFIA competitive binding assay (Ki) against Eu-labeled C307 on HT-1376 cells
# Description: A competition binding assay was utilized to determine the Ki for miniproteins bound to Nectin-4 expressed on the surface of cancer cells. […] Miniprotein incubations occurred for 90 min to reach binding equilibrium. […] After miniprotein incubations, the wells were washed to remove unbound ligand and treated according to manufacturer instructions for a DELFIA® (dissociation-enhanced lanthanide fluorescent immunoassay, Revvity Health Sciences). In brief, washed wells were incubated with 15 μL of 2 M HCl for 2 h at 37° C., after which 17 μL of 2 M NaOH and 30 μL of DELFIA® enhancement solution were added to each well and incubated for an additional 30 min. The remaining Eu reacted with the DELFIA® enhancer solution to generate fluorescence measured on the Envision instrument. Relative fluorescence units (RFUs) were measured as a function of test article concentration in order to calculate an IC50.
# A whole cell binding assay was used to estimate the equilibrium binding affinity (KD) or binding inhibition constant (Ki) of miniprotein ligands to cells expressing a target of interest. Cells were dispensed into a 384-well plate and incubated at 37° C., in 5% CO2 overnight. The next day cells were gently washed once in assay buffer prior to addition of europium chelated ligand. […] For Ki determination, a single concentration (KD equivalent concentration) of europium-chelate miniprotein was added to each well followed immediately by the addition of unconjugated competing ligand over 12 different concentrations ranging from 100 times below and above expected Ki values as before. The plate was incubated for 1.5 h at room temperature to reach binding equilibrium. Cells were then washed three times at room temperature with 1×PBS followed by the addition of 2 M HCl and incubated for two h at 37° C. Following this step, 2 M NaOH and fluorescent inducer solution were added to each well and incubated for 30 minutes at room temperature according to the manufacturer's protocol (Perkin-ELMER DELFIA assay). Plates were read on an Envision plate reader and a curve-fitting model was applied to estimate KD and Ki values using GraphPad Prism software.
# Engineered Nectin-4 miniproteins with further modified lysine residues (C298-C304; as described in Example 4B) were evaluated for their ability to bind to Nectin-4.
# [6] = In vivo biodistribution of 111In-labeled miniproteins by SPECT/CT, HT-1376 xenograft; set-up: species or system mouse; details: female, athymic nude, mouse, in vivo, 111In-labeled miniprotein, SPECT/CT, kidneys, n=3 mice
# In short: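 Mice bearing HT-1376 (Nectin-4-expressing human) xenografts imaged by SPECT/CT after 111In-labeled miniprotein dosing. SPECT reported as activity; per-subject maximum intensity projections scaled in % ID/g at each time point.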
molecule,measurement,setting,value
CC[C@H](C)[C@@H]1NC(=O)[C@H](Cc2ccc(O)cc2)NC(=O)[C@H](CCC(=O)O)NC(=O)[C@@H]2CSSC[C@@H](C(=O)N[C@@H](CO)C(=O)O)NC(=O)CNC(=O)[C@H](CC(C)C)NC(=O)[C@H](CC(N)=O)NC(=O)[C@H](CC(=O)O)NC(=O)[C@H](CC(C)C)NC(=O)[C@H]([C@@H](C)CC)NC(=O)[C@H](CCC(=O)O)NC(=O)[C@H](CCC(=O)O)NC(=O)[C@H]([C@@H](C)CC)NC(=O)[C@H](CSSC[C@H](NC(=O)CCOCCOCCOCCOCCNC(=O)CCCC[C@@H]3SC[C@@H]4NC(=O)N[C@@H]43)C(=O)N[C@@H](CC(=O)O)C(=O)N[C@@H](Cc3ccc(O)cc3)C(=O)N[C@@H](CC(=O)O)C(=O)N[C@@H](CCC(=O)O)C(=O)N[C@@H](CCC(N)=O)C(=O)N[C@@H](Cc3ccccc3)C(=O)N[C@@H](Cc3ccccc3)C(=O)N[C@@H]([C@@H](C)O)C(=O)N[C@@H](C)C(=O)N[C@@H](CC(C)C)C(=O)N[C@@H](C)C(=O)N[C@@H](CCCNC(=N)N)C(=O)N[C@@H](CC(C)C)C(=O)N[C@@H](CCCNC(=N)N)C(=O)NCC(=O)N[C@@H](C)C(=O)N[C@@H](CC(=O)O)C(=O)N[C@@H]([C@@H](C)CC)C(=O)N2)NC(=O)[C@H](CCC(=O)O)NC(=O)CNC(=O)[C@@H]2CCCN2C(=O)[C@H](CC(C)C)NC(=O)[C@H](Cc2ccc(O)cc2)NC(=O)[C@H](CCC(N)=O)NC(=O)[C@H](Cc2ccccc2)NC(=O)[C@H](CO)NC(=O)[C@H](C)NC(=O)[C@H](CCC(N)=O)NC1=O [Compound C247],Background binding to un-transfected HEK293 cells,[1],low-background binding
"Ac-CEYDEEFFAGLKRLRGGDICYYIKKKFDKVPDLCIEEILDKLGC-OH (disulfide 1-34, 20-44) [Compound C9]",Kd,Nectin-4 [2],7500 pM
same,kd for human Nectin-4,Nectin-4 [2],0.02271 s⁻¹
same,Kd,mouse Nectin-4,7820 pM
same,kd for mouse Nectin-4,mouse Nectin-4,0.02134 s⁻¹
"C214 ({DOTA-PEG4′}-CEYDEEFFTALKRLRGGDICYYIKKKFDYLPKLCIEEILDNLGC-NH2; disulfide 1-34, 20-44) [Compound C214]",EC50 (microcurie/milliliter) for 225Ac radioconjugates,[3],0.014 microcurie/milliliter
"{Biotin-PEG4}-CDYDEQFFTALA[Cit]LRGGDICEYIQA[Lys(Me3)]FQYLPGLCIEEILDNLGCS-OH (disulfide 1-34, 20-44) [Compound C259]",Background binding to un-transfected HEK293 cells,[1],low-background binding
"{Biotin-PEG4}-CDYDEQFFTALKRLRGGDICEYIQA[Lys(Me3)]FQYLPGECIEEILDNLGCS-OH (disulfide 1-34, 20-44) [Compound C255]",% Uptake of C306 (Control),[4],14.1%
same,Ki,Nectin-4 [5],660 pM
"{Biotin-PEG4}-CEYDEEFFTALARLRGADICQYIQA[Lys(Me3)]FQYLPALCIEEILDNLGCS-OH (disulfide 1-34, 20-44) [Compound C252]",% Uptake of C306 (Control),[4],1.24%
same,Ki,Nectin-4 [5],760 pM
"{Biotin-PEG4}-CEYDEQFFTALARLRGADICEYIQARFQYLPGLCIEEILDNLGCS-OH (disulfide 1-34, 20-44) [Compound C280]",% Uptake of C306 (Control),[4],1.56%
same,Ki,Nectin-4 [5],540 pM
"{Biotin-PEG4}-CEYDEQFFTALARLRGGDICEYIQA[Arg(Me2s)]FQYLPGLCIEEILDNLGCS-OH (disulfide 1-34, 20-44) [Compound C267]",% Uptake of C306 (Control),[4],0.800%
same,Ki,Nectin-4 [5],760 pM
"{DOTA-PEG4}-CEYDEEFFAGLKRLRGGDICYYIKKKFDKVPDLCIEEILDKLGC-OH (disulfide 1-34, 20-44) [Compound C12]",kd for human Nectin-4,Nectin-4 [2],0.01697 s⁻¹
same,kd for mouse Nectin-4,mouse Nectin-4,0.02625 s⁻¹
"{DOTA-PEG4}-CEYDEEFFAGLKRLRGGDICYYIKKKFDKVPDLCIEEILDKLGC-OH (disulfide 1-34, 20-44) [Compound C91]",kd for human Nectin-4,Nectin-4 [2],0.02966 s⁻¹
same,kd for mouse Nectin-4,mouse Nectin-4,0.02817 s⁻¹
"{DOTA-PEG4}-CEYDEQFFTALKALRGGDICYYIQASFNYLPDLCIEEILDNLGCS-OH (disulfide 1-34, 20-44 (inferred)) [Compound C113]",tissue uptake at 4 h,"[6]; 4 h post-dosing, read-out: Biodistribution, Kidneys, 4 h (% ID/g) Average",87.9 %ID/g
same,tissue uptake at 24 h,"[6]; 24 h post-dosing, read-out: Biodistribution, Kidneys, 24 h (% ID/g) Average",42.7 %ID/g
same,EC50 (microcurie/milliliter) for 225Ac radioconjugates,[3],0.042 microcurie/milliliter
